{
  "source": "patent US20040171795A1",
  "about": "“Novel peptides” (priority 2000, published 2004)",
  "key": {"[1]": {"tested_on": "Vero cell", "assay": "Introduction of FITC-labeled oligonucleotide, fluorescence microscopy", "format": "cell-based, monkey", "conditions": "300 nM FITC-labeled oligonucleotide, 2.5 μM peptide", "description": "Vero cell was inoculated in the well of a chamber slide (Lab-Tek II chamber slide, size 4 well, manufactured by NALGEN NUNC) at a rate of 1×10^5 cells/well, and the cells were cultivated in DMEM supplemented with 10% FBS in 5% CO2 atmosphere at 37° C. for 24 hours. After removing the medium, opti-MEM containing 300 nM FITC-labeled oligonucleotide prepared in Example 6 and 2.5 μM of the peptide of SEQ ID NO:1 prepared in Example 1 was added, and the cultivation was continued for 4 hours. The medium was replaced with DMEM supplemented with 10% FBS, and the cultivation was continued in 5% CO2 atmosphere at 37° C. for another 24 hours. After washing the cell with PBS, the cells were fixed by using PBS containing 4% paraformaldehyde, and accumulation of FITC-labeled oligonucleotide in the cell nucleus was confirmed by using a fluorescence microscope (AH-3, manufactured by Olympus). […] On the other hand, accumulation of FITC-labeled oligonucleotide in the cell was not confirmed in the absence of the peptide of SEQ ID NO:1."}, "[2]": {"tested_on": "nuclease Bal 31", "assay": "Nuclease resistance-imparting ability for P=O form oligonucleotide", "format": "biochemical", "conditions": "2 U Bal 31, 30° C., 60 minutes, peptide 50 μM, oligonucleotide 3 μM", "description": "Nuclease resistance-imparting ability for natural (P═O form) oligonucleotide was evaluated. To be more specific, 2 U of nuclease Bal 31 (manufactured by Takara Shuzo) was added to 20 mM Tris-HCl buffer (pH=8) containing 50 μM of the peptide of SEQ ID NO:1 prepared in Example 1, 3 μM of P═O form oligonucleotide prepared in Example 6, 150 mM NaCl, 12 mM MgCl2, and 12 mM CaCl2, and the reaction was allowed to take place at 30° C. for 60 minutes. Next, the oligonucleotide which escaped from the decomposition was extracted with phenol/chloroform, and subjected to electrophoresis by the procedure described in Example 8 to stain the oligonucleotide."}, "[3]": {"tested_on": "T24", "assay": "Luciferase plasmid introduction versus phosphatidyl serine translocation", "format": "cell-based, human", "description": "(§1) A cell line established from monkey kidney (Vero cell) and a human bladder cancer cell (T24 cell) purchased from American Type Culture Collection (ATCC) and human lung cancer cell (A549 cell) purchased from Dainippon Pharmaceutical were inoculated on a 24 well culture plate (manufactured by NALGEN NUNC) at 1×10^5 cells/well. Vero cell and A549 cell were cultivated in DMEM (manufactured by Life Technologies Oriental) supplemented with 10% fetal bovine serum (hereinafter referred to as FBS, manufactured by NICHIREI), and T24 cell was cultivated in McCoy's 5a (manufactured by Life Technologies Oriental) supplemented with 10% FBS in 5% CO2 atmosphere at 37° C. for 24 hours. […] The luciferase activity expressed in the cell was then measured by the method instructed in luciferase assay system (manufactured by Promega). […] 20 μL of this cell lysate and 100 μL of the Luciferase Assay Reagent II attached to the kit was added to a fluorescence-measuring plate (Microlite™ 1 plate, manufactured by Dynatech), and after mixing, fluorescence was measured for 1 second by using a multilabel counter (ARVO™ SY1420 MULTILABEL COUNTER, manufactured by Wallac Beltold. […]"}, "[4]": {"tested_on": "A549", "assay": "Luciferase plasmid introduction versus phosphatidyl serine translocation", "format": "cell-based, human", "description": "as §1"}, "[5]": {"assay": "Affinity by surface plasmon resonance (Biacore 2000), flow cell 2", "format": "binding", "conditions": "SPR, HPA chip, 0.1 mg/mL BSA; compared with flow cell 1", "description": "The specific affinity of the peptide for phosphatidyl serine was evaluated by means of surface plasmon resonance (SPR) using Biacore 2000 (manufactured by Biacore). To be more specific, phosphatidyl choline was immobilized on flow cell 1, and 50% of phosphatidyl serine and 50% of phosphatidyl choline were immobilized on flow cell 2 of HPA chip (manufactured by Biacore), and ability of the peptide to bind to the phospholipid was evaluated in the presence of 0.1 mg/mL BSA to thereby evaluate the affinity."}, "[6]": {"tested_on": "Vero", "assay": "Luciferase plasmid introduction versus phosphatidyl serine translocation", "format": "cell-based, monkey", "description": "as §1"}},
  "data": [
    {"substance": "SEQ ID NO: 1: peptide having the amino acid sequence of SEQ ID NO:1, made by solid phase synthesis (TRYLRIHPRSWVHQIALRLRYLRIHPRSWVHQIALRS; synthetic peptide using an automatic peptide synthesizer)", "values": [
      {"measurement": "accumulation of FITC-labeled oligonucleotide in the cell nucleus", "setting": "[1]", "result": "FITC-labeled oligonucleotide was accumulated in the cell nucleus"},
      {"measurement": "nuclease resistance-imparting ability for natural (P═O form) oligonucleotide", "setting": "[2]", "result": "found to exhibit nuclease resistance-imparting ability"},
      {"measurement": "Luciferase activity", "setting": "[3]", "result": "7.8 × 10^3 cps/mg protein"},
      {"measurement": "Luciferase activity", "setting": "[4]", "result": "8.7 × 10^4 cps/mg protein"},
      {"measurement": "binding to flow cell 2 (50% phosphatidyl serine, 50% phosphatidyl choline)", "setting": "[5]", "result": "stronger"},
      {"measurement": "Luciferase activity", "setting": "[6]", "result": "2.5 × 10^6 cps/mg protein"}
    ]}
  ]
}
